From patent US11149029B2, “Salts of IJAK inhibitors and methods of using the same” (AstraZeneca AB, priority 2018, dated 2021)
Several values for one entry are separate records, joined by “and”; a condition that tells them apart may be missing. Identical values can stand only once. Counter-ions that a name gives are not always drawn.

Experiments:
[1] = Weight loss on heating from room temperature to 120° C.; type: physicochemical; settings: heating from room temperature (RT) to 120° C.
Experimental: From the crystal structure (performed using single crystal X-ray diffraction, SXRD) of the free base compound of Formula (Ia), it was determined that the form was a non-stoichiometric hydrate.
Accordingly, a salt screen was performed and out of 20 counter ions tested, three salts (phosphoric, sulfuric and xinafoic salt) were scaled up (5 g) and further analysis was performed. […] (sulfuric salt) and 5.4% w/w RT−120° C. (phosphoric salt).
Screening was performed at Almac including over 110 solvent and non-solvent based screening experiments.

[2] = Gravimetric vapor sorption analysis (GVS), water absorption 0-80% relative humidity; type: physicochemical; settings: for Water absorption 0-80% RH (% w/w): gravimetric vapor sorption
[3] = listed as free base compound of Formula (Ia)

| Weight loss RT-120° C. (% w/w) [1] [% w/w] | Weight loss RT-120° C. (% w/w) [1, 3] [% w/w] | Hygroscopicity (in words) [2] | Water absorption 0-80% RH (% w/w) [2] [% w/w] | Water absorption 0-80% RH (% w/w) [2, 3] | Weight loss RT-120° C. (% w/w) ([1]; listed as xinafoate salt) | Water absorption 0-80% RH (% w/w) ([2]; listed as xinafoate salt) | Compound |
| --- | --- | --- | --- | --- | --- | --- | --- |
| ~5 | 5 | slightly hygroscopic | ~1.7 | 2 % w/w and 1.7 % w/w | – | – | COC[C@H](C(=O)Nc1cccc2c(-c3nc(Nc4cccc(S(C)(=O)=O)c4F)ncc3F)c[nH]c12)N1CCN(C)CC1 [Free base compound of Formula (Ia), (R)—N-(3-(5-fluoro-2-(2-fluoro-3-(methylsulfonyl)phenylamino)pyrimidin-4-yl)-1H-indol-7-yl)-3-methoxy-2-(4-methylpiperazin-1-yl)propanamide] |
| ~0.2 | – | non-hygroscopic | ~0.2 | – | 0.2 | 0.2 | COC[C@H](C(=O)Nc1cccc2c(-c3nc(Nc4cccc(S(C)(=O)=O)c4F)ncc3F)c[nH]c12)N1CCN(C)CC1 [Xinafoate salt of compound of Formula (Ia)] [4-{(2R)-1-[(3-{5-fluoro-2-[2-fluoro-3-(methanesulfonyl)anilino]pyrimidin-4-yl}-1H-indol-7-yl)amino]-3-methoxy-1-oxopropan-2-yl}-1-methylpiperazin-1-ium; 1-hydroxynaphthalene-2-carboxylate] |
